# Source: ChEMBL document CHEMBL1201862, “PubChem BioAssay data set” (2004)
# pIC50: −log10 of the molar value. The source made the active and inactive calls.
# Legend:
# [1] = luciferase reporter signal suppression in cells – H4 neuroglioma cells, luminescence, dose response (AID 1990); assay type: functional, cell-based
# [2] = loss of viability in HepG2 cells – cell-based, CellTiter-Glo, cherry-picked, cytotoxicity control for Shn3 inhibitor project, dose response (AID 624134); assay type: functional
# [3] = reduction of Shn3 3'UTR-driven luciferase in osteoblasts – cell-based, Clone20 osteoblasts, firefly luciferase, cherry-picked, dose response (AID 624132); assay type: functional;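 further: firefly luciferase luminescence from reporter carrying the Shn3 3'UTR in osteoblasts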
# [4] = non-specific 3'UTR reporter inhibition in Clone20-Shn3RL – cell-based, Renilla luciferase, cherry-picked, counter-screen for Shn3 inhibitor project, dose response (AID 624133); assay type: functional
# [5] = target: T1, Scavenger receptor class B member 1 (Mus musculus, UniProt Q61009); experiment: mouse SR-BI DiI-HDL uptake blockers – ldlA[mSR-BI] cells, fluorescence, cherry pick, dose response (AID 493194); assay type: functional, cell-based;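 further: cellular uptake of fluorescent DiI-labeled HDL measured as cell fluorescence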
# T1 sequence (Q61009 whole entry): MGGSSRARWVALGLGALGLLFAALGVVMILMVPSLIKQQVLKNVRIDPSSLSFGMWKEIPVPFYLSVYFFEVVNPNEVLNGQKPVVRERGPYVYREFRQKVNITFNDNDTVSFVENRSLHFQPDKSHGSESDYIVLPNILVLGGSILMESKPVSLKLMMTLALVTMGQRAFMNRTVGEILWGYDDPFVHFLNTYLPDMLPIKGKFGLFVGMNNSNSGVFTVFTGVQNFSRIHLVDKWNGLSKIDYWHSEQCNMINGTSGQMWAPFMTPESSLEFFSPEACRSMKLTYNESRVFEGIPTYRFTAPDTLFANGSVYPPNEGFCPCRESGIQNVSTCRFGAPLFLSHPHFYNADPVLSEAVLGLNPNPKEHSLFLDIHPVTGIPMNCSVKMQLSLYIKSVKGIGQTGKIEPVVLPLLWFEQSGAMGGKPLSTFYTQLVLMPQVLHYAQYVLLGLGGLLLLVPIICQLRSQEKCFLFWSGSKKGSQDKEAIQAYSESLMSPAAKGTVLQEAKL
# [6] = Luminescence Cell-Based Dose Response HTS to Identify Inhibitors of 5'UTR Stem-Loop Driven Prion Protein mRNA Translation in H4 Neuroglioblastoma Cells. [Related pubchem assays: 1827 (Project Summary), 1813 (Primary HTS)]; assay type: functional
# [7] = target: T2, Heat shock factor protein 1 (Mus musculus, UniProt P38532); experiment: decrease of HSF1-responsive luciferase luminescence – cell-based, NIH3T3, dose retest, confirmation (AID 2382); assay type: functional;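 further: NIH3T3 fibroblasts with HSF1-driven luciferase reporter stressed by proteasome inhibitor MG132; luminescence from HSF1-driven luciferase expression after 8 hours of MG132 stress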
# T2 sequence (P38532 whole entry): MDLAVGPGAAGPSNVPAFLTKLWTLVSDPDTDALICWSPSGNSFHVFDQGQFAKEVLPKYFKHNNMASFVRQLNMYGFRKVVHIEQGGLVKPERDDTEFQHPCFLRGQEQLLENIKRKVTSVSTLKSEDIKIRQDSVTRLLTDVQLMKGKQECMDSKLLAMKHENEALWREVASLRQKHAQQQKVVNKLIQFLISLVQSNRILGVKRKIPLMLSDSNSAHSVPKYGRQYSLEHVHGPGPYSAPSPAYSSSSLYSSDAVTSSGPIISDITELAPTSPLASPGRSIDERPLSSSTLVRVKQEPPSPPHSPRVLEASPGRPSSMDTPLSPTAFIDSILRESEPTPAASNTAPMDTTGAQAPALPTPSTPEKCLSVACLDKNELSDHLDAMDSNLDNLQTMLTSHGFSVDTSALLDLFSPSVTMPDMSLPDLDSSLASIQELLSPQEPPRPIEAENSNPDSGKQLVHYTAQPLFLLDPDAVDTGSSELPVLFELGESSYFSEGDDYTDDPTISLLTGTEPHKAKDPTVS
# [8] = alpha-synuclein stem-loop luciferase translation blockers – H4 neuroglioma cells, luminescence, confirmation (AID 1988); assay type: functional, cell-based
# [9] = target: T3, Estrogen receptor (Homo sapiens, UniProt P03372);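 further: potency for inhibiting coactivator peptide recruitment to the receptor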
# T3 sequence (P03372 whole entry): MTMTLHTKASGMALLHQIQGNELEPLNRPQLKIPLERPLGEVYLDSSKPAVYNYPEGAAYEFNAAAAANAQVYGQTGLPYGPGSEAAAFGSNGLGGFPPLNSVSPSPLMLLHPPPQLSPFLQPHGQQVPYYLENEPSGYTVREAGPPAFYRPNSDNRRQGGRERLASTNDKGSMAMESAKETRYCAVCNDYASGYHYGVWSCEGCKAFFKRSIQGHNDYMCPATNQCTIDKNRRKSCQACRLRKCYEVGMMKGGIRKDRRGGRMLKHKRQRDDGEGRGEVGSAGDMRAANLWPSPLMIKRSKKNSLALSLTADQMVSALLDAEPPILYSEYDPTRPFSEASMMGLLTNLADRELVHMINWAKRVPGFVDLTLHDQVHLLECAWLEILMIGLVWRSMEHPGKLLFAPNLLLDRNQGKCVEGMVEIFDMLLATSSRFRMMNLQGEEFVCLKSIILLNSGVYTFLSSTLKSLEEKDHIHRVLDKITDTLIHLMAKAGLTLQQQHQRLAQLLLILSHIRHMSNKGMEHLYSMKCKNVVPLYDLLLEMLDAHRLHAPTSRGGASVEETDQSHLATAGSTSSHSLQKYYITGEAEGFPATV
# [10] = target: ORF 73 (Human herpesvirus 8, UniProt O40947); experiment: KSHV LANA DNA-binding disruption – biochemical, fluorescence polarization, cherry-picked samples, dose response (AID 504725); design: species or system Human gammaherpesvirus 8;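 further: fluorescence polarization of a labeled DNA duplex reporting LANA DNA binding; potency is for inhibitors that block LANA binding to the DNA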
# [11] = target: Protein S100-A4 (Homo sapiens, UniProt P26447); experiment: human S100A4 peptide interaction inhibition curves – biochemical, fluorescence polarization, cherry-picked hits, dose response (AID 687001); assay type: functional
# [12] = target: T4, Rac GTPase-activating protein 1 (Homo sapiens, UniProt Q9H0H5); experiment: blockers of MgcRacGAP-driven Rac1 GTP hydrolysis – biochemical, ADP Hunter fluorescence, primary and confirmatory, confirmation (AID 624330); assay type: functional
# T4 sequence (Q9H0H5 whole entry): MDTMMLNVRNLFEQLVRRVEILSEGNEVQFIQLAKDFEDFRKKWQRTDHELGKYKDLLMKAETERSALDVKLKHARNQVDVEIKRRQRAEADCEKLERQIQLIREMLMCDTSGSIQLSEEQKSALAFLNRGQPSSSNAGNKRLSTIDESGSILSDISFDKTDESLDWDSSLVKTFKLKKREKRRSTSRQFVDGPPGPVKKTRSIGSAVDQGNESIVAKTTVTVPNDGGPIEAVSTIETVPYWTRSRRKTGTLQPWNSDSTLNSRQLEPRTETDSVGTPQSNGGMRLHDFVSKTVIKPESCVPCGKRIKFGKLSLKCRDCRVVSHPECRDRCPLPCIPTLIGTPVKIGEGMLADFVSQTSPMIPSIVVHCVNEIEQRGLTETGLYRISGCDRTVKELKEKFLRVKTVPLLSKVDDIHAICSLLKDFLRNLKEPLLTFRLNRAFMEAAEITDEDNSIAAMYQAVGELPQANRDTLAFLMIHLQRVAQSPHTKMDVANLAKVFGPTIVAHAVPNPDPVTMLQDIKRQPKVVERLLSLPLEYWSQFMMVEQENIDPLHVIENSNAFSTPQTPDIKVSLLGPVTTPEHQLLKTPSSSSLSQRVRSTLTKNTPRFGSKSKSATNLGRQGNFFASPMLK
# [13] = system: HeLa; experiment: viability loss in HeLa cells – cell-based, 24 h, cherry-picked samples, cytotoxicity control, dose response (AID 504726); assay type: functional; details: Homo sapiens;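 further: potency for cytotoxicity as loss of luminescence signal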
# [14] = target: Paired box protein Pax-8 (Homo sapiens, UniProt Q06710); experiment: PAX8 transcriptional activity inhibition in RMG-I – RMG-I cells, luciferase, cherry-pick, dose response (AID 687027); assay type: functional, cell-based;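 further: luciferase reporter driven by Pax8 target thyroperoxidase promoter measured by SteadyGlo luminescence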
# [15] = viability loss in HeLa cells – cytotoxicity control for MgcRacGAP inhibitor project, dose response (AID 624300); assay type: functional
# [16] = target: Nonstructural protein 1 (Influenza A virus, UniProt Q194T2); assay type: functional, Influenza A virus (A/California/07/2009(H1N1))
# [17] = target: Voltage-gated N-type calcium channel alpha-1B subunit/Amyloid beta A4 precursor protein-binding family A member 1 (Homo sapiens, UniProt Q00975+Q02410); experiment: disruptors of Mint-PDZ/N-type channel peptide interaction – biochemical, HTRF, set 2, SAR follow-up (AID 434980); assay type: functional
# [18] = target: T5, Kappa-type opioid receptor (Homo sapiens, UniProt P41145); assay type: functional
# [19] = target: T5, Kappa-type opioid receptor; assay type: functional; remark: listed apart in the source
# [20] = target: Beta-galactosidase (Escherichia coli, UniProt Q8VNN2); assay type: functional
# T5 sequence (P41145 whole entry): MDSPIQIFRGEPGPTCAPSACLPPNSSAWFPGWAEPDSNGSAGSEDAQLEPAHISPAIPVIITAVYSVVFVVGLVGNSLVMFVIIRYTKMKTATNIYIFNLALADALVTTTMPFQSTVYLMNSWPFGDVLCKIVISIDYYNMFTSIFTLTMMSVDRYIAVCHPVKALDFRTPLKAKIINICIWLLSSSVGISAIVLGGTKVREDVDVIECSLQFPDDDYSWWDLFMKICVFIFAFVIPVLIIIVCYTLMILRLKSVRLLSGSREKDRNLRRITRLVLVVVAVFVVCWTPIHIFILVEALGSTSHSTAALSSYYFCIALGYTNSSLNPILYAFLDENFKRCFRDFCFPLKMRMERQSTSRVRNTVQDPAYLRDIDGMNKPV
# Sequence of ORF 73 (O40947 whole entry): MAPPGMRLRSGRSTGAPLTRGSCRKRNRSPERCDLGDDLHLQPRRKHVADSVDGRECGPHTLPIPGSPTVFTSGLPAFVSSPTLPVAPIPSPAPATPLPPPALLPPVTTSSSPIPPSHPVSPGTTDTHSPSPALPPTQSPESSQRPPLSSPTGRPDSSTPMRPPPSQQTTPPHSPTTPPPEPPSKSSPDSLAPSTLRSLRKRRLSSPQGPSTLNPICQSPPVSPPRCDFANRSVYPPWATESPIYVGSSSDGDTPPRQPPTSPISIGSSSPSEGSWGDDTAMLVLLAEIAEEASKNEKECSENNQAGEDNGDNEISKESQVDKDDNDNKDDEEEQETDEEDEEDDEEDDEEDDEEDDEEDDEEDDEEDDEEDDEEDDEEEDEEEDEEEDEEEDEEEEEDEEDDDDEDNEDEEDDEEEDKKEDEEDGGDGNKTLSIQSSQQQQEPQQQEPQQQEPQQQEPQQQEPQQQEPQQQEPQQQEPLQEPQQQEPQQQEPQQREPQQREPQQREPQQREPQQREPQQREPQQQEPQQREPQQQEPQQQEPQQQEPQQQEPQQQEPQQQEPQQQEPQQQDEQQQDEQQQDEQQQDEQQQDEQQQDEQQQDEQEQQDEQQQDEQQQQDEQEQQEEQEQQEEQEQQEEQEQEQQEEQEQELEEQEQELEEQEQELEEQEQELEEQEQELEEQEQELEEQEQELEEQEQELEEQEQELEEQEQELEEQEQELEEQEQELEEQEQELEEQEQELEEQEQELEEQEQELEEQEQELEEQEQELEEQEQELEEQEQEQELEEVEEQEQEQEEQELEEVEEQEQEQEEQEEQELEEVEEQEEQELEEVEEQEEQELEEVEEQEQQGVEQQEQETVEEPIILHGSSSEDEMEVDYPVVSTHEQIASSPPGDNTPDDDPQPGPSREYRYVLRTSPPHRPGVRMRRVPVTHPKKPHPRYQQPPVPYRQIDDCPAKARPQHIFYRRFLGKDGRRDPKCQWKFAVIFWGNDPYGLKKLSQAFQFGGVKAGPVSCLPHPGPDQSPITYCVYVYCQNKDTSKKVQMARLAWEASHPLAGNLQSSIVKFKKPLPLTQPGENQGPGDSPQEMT
# Sequence of Voltage-gated N-type calcium channel alpha-1B subunit/Amyloid beta A4 precursor protein-binding family A member 1 (Q00975 whole entry): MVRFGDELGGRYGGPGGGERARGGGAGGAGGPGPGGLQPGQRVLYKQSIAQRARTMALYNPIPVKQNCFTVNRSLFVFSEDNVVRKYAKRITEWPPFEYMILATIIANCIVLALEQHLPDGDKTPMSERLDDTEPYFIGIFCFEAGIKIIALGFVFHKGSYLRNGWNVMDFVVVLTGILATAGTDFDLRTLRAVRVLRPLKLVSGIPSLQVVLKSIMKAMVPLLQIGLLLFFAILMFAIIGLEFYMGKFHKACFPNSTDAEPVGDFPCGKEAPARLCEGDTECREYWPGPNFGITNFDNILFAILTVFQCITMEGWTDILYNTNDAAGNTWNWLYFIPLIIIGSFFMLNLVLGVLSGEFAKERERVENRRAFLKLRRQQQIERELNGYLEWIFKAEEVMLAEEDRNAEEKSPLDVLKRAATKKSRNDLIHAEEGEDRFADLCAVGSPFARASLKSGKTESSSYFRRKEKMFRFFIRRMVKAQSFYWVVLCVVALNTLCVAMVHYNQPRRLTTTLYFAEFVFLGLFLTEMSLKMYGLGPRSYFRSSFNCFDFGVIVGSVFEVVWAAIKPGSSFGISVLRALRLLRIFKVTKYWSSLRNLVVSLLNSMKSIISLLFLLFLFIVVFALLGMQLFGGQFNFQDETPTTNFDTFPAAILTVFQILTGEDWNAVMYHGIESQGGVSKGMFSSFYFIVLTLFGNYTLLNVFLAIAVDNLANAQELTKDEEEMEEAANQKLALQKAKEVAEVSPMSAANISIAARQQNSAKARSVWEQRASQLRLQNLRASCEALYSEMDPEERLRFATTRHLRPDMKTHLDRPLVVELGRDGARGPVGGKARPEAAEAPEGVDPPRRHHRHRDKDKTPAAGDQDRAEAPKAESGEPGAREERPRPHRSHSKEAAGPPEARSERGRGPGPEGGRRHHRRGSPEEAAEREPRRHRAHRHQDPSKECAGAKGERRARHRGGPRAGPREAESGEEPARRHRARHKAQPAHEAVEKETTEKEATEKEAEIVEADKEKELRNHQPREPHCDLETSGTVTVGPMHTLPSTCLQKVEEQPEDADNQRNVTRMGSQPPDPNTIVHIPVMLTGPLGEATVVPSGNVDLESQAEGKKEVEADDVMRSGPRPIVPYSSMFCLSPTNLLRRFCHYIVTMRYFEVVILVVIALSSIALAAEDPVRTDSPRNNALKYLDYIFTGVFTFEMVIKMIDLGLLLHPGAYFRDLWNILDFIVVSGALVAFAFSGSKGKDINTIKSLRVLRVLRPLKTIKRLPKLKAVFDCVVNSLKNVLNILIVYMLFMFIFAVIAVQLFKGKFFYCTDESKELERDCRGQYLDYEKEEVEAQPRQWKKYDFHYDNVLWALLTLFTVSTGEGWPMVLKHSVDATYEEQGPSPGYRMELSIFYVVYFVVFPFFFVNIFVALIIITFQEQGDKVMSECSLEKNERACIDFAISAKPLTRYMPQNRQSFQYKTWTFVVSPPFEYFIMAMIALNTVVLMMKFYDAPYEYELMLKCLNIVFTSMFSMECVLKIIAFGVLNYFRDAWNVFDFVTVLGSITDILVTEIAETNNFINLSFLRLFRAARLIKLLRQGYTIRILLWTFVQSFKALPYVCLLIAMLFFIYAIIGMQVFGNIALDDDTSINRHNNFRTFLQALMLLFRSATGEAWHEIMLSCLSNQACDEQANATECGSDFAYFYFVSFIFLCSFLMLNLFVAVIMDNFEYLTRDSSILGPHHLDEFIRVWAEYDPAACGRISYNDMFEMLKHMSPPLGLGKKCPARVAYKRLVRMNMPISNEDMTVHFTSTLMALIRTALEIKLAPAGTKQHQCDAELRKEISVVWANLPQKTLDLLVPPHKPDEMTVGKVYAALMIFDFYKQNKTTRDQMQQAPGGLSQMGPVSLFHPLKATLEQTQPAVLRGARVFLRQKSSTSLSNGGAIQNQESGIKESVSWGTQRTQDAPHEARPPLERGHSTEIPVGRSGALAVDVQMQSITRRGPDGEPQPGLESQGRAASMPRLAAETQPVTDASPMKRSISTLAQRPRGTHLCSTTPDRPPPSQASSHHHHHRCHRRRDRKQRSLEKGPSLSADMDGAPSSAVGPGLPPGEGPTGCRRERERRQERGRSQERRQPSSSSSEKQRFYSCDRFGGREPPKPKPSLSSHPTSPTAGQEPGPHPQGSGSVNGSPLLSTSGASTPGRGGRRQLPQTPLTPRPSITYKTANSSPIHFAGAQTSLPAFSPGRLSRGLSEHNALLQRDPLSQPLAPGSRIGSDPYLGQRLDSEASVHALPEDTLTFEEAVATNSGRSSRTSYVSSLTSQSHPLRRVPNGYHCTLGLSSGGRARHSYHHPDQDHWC
# Sequence of Voltage-gated N-type calcium channel alpha-1B subunit/Amyloid beta A4 precursor protein-binding family A member 1 (Q02410 whole entry): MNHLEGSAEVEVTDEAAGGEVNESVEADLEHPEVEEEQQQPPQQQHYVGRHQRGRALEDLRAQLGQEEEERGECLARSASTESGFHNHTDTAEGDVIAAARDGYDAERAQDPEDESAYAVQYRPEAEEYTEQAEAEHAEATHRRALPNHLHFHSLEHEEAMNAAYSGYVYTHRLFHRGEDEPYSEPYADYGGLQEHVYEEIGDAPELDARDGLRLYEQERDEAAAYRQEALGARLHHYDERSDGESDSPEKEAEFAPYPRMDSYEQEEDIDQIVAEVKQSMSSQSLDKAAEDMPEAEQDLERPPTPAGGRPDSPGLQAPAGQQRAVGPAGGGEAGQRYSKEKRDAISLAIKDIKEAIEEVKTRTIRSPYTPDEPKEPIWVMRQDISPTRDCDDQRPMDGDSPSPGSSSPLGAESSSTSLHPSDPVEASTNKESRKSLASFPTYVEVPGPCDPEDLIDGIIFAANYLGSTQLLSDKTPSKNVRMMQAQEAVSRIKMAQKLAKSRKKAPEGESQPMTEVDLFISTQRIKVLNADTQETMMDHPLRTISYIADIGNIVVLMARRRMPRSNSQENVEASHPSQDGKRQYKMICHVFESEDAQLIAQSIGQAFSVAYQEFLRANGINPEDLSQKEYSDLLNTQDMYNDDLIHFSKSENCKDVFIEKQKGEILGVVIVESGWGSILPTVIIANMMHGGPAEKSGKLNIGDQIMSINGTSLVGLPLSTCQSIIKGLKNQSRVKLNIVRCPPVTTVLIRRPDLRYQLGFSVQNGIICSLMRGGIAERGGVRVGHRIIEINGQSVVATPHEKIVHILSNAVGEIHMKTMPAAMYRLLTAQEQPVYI
# Sequence of Protein S100-A4 (P26447 whole entry): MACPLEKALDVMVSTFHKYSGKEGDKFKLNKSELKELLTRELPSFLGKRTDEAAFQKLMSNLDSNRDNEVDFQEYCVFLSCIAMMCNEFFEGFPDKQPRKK
# Sequence of Nonstructural protein 1 (Q194T2 whole entry): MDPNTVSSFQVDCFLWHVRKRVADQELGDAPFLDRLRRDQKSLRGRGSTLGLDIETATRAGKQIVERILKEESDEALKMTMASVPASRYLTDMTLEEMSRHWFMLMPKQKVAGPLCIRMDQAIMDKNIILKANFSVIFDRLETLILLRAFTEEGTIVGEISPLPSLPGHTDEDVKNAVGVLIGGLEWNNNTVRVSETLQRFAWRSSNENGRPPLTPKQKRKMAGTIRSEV
smiles,measurement,setting,value
CCOc1cc(N2CCOCC2)c(OCC)cc1NC(=O)c1cc(-c2ccco2)nc2ccccc12,EC50,[1],> 120 µM (not active)
same,AC50,[2],53.5 µM (active)
same,AC50,[3],8.94 µM (active)
same,AC50,[4],9.78 µM (active)
same,AC50,[5],46.2 µM (active)
same,EC50,[6],> 120 µM (not active)
same,EC50,[7],1.21 µM (active)
same,EC50,[8],7.84 µM (active)
same,IC50,[9],14.7 µM (active)
COc1cccc2c1C(=O)c1c(O)c3c(c(O)c1C2=O)CC(O)(C(C)=NNC(=O)c1ccc(Cl)c(Cl)c1)CC3OC1CC(N)C(O)C(C)O1 (stereo not given),AC50,[10],13.2 µM (active)
same,AC50,[11],0.562 µM (active)
same,IC50,[12],54.9 µM (active)
same,AC50,[13],3.38 µM (active)
same,AC50,[14],4.72 µM (active)
same,CC50,[15],9.6 µM (active)
same,IC50,[16],3.67 µM (active)
CN(C)CCNC(=O)c1cc(-c2ccco2)nc2ccccc12,IC50,[17],> 56.8 µM (inactive)
C=CC/N=c1\scc(-c2ccc3c(c2)NC(=O)CO3)n1/N=C(\C)c1ccccn1,pIC50,[18],< 4.49
same,IC50,[19],10.1 µM (active)
same,EC50,[20],> 31.5 µM (inactive)
